Test results reported in patent US10597388B2, “Pyridazinone herbicides” (FMC CORPORATION, priority 2014, dated 2020).

Experiments:
Assay type in all cases: in vivo
[1] = system: blackgrass (Alopecurus myosuroides); test: Test C greenhouse herbicide test, pre- and postemergence
In short: (§1)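 Visual 0–100 injury score (100 = complete control) taken against untreated controls after 13–15 d in greenhouse. Test chemicals, formulated in solvent plus surfactant, applied preemergence to seeds in loam–sand soil or postemergence to 1- to 4-leaf plants (2–18 cm).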

corn (Zea mays) = test: as above
In short: as §1

[2] = system: crabgrass, large (large crabgrass, Digitaria sanguinalis); test: as above
In short: as §1

[3] = system: foxtail, giant (giant foxtail, Setaria faberii); test: as above
In short: as §1

[4] = system: johnsongrass (Sorghum halepense); test: as above
In short: as §1

[5] = system: lambsquarters (Chenopodium album); test: as above
In short: as §1

[6] = system: morningglory (Ipomoea coccinea); test: as above
In short: as §1

[7] = system: nutsedge, yellow (yellow nutsedge, Cyperus esculentus); test: as above
In short: as §1

[8] = system: oilseed rape (Brassica napus); test: as above
In short: as §1

[9] = system: pigweed (Amaranthus retroflexus); test: as above
In short: as §1

[10] = system: ragweed (common ragweed, Ambrosia elatior); test: as above
In short: as §1

[11] = system: ryegrass, Italian (Italian ryegrass, Lolium multiflorum); test: as above
In short: as §1

soybean (Glycine max) = test: as above
In short: as §1

[12] = system: waterhemp (common waterhemp, Amaranthus rudis); test: as above
In short: as §1

[13] = system: wheat (winter wheat, Triticum aestivum); test: as above
In short: as §1

kochia (Kochia scoparia) = test: Test C greenhouse herbicide test, postemergence; settings: Postemergence
In short: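 Plants grown in potting mix of peat moss, vermiculite, wetting agent and starter nutrients were sprayed postemergence at 2 to 18 cm height (1- to 4-leaf stage). After 13 to 15 d in the greenhouse, injury was visually rated against untreated controls on a 0–100 scale (0 no effect, 100 complete control).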

[14] = Postemergence, 31 g ai/ha, scale 0 to 100 (0 no effect, 100 complete control)
[15] = Postemergence, 125 g ai/ha, scale 0 to 100, 0 is no effect, 100 is complete control
[16] = Postemergence, 250 g ai/ha, scale 0 to 100, 0 no effect, 100 complete control, 13 to 15 d
[17] = Preemergence, 31 g ai/ha, scale 0 to 100, 0 is no effect, 100 is complete control
[18] = Preemergence, 62 g ai/ha, scale 0 to 100, 0 is no effect, 100 is complete control
[19] = Preemergence, 125 g ai/ha, scale 0 to 100, 0 is no effect, 100 is complete control
[20] = Preemergence, 250 g ai/ha, scale 0 to 100 (0 no effect, 100 complete control)
[21] = postemergence, 62 g ai/ha, scale 0 to 100, 0 no effect, 100 complete control

## Cc1ccc2ccccc2c1-c1c(O)c(Cl)nn(C)c1=O [Compound 125]
[1]; [14]
  Plant response rating, Blackgrass: 20
[1]; [15]
  Plant response rating, Blackgrass: 60
[1]; [16]
  Plant response rating, Blackgrass: 80
[1]; [17]
  Plant response rating, Blackgrass: 50
[1]; [18]
  Plant response rating, Blackgrass: 55
[1]; [19]
  Plant response rating, Blackgrass: 55
[1]; [20]
  Blackgrass plant response rating: 90
[1]; [21]
  Blackgrass plant response rating: 45
Corn (Zea mays); [14]
  Plant response rating, Corn: 5
Corn (Zea mays); [15]
  Plant response rating, Corn: 5
Corn (Zea mays); [16]
  Plant response rating, Corn: 5
Corn (Zea mays); [17]
  Plant response rating, Corn: 0
Corn (Zea mays); [18]
  Plant response rating, Corn: 0
Corn (Zea mays); [19]
  Plant response rating, Corn: 20
Corn (Zea mays); [20]
  Corn plant response rating: 55
Corn (Zea mays); [21]
  Corn plant response rating: 0
[2]; [14]
  Plant response rating, Crabgrass, Large: 25
[2]; [15]
  Plant response rating, Crabgrass, Large: 40
[2]; [16]
  Plant response rating, Crabgrass, Large: 60
[2]; [17]
  Plant response rating, Crabgrass, Large: 40
[2]; [18]
  Plant response rating, Crabgrass, Large: 45
[2]; [19]
  Plant response rating, Crabgrass, Large: 75
[2]; [20]
  Crabgrass, Large plant response rating: 98
[2]; [21]
  Crabgrass, Large plant response rating: 35
[3]; [14]
  Plant response rating, Foxtail, Giant: 70
[3]; [15]
  Plant response rating, Foxtail, Giant: 95
[3]; [16]
  Plant response rating, Foxtail, Giant: 98
[3]; [17]
  Plant response rating, Foxtail, Giant: 95
[3]; [18]
  Plant response rating, Foxtail, Giant: 100
[3]; [19]
  Plant response rating, Foxtail, Giant: 98
[3]; [20]
  Foxtail, Giant plant response rating: 100
[4]; [14]
  Plant response rating, Johnsongrass: 5
[4]; [15]
  Plant response rating, Johnsongrass: 20
[4]; [16]
  Plant response rating, Johnsongrass: 20
[4]; [17]
  Plant response rating, Johnsongrass: 40
[4]; [18]
  Plant response rating, Johnsongrass: 55
[4]; [19]
  Plant response rating, Johnsongrass: 60
[4]; [20]
  Johnsongrass plant response rating: 70
[5]; [14]
  Plant response rating, Lambsquarters: 90
[5]; [15]
  Plant response rating, Lambsquarters: 98
[5]; [16]
  Plant response rating, Lambsquarters: 100
[5]; [17]
  Plant response rating, Lambsquarters: 90
[5]; [18]
  Plant response rating, Lambsquarters: 100
[5]; [19]
  Plant response rating, Lambsquarters: 100
[5]; [20]
  Lambsquarters plant response rating: 100
[6]; [14]
  Plant response rating, Morningglory: 95
[6]; [15]
  Plant response rating, Morningglory: 100
[6]; [16]
  Plant response rating, Morningglory: 100
[6]; [17]
  Plant response rating, Morningglory: 90
[6]; [18]
  Plant response rating, Morningglory: 95
[6]; [19]
  Plant response rating, Morningglory: 95
[6]; [20]
  Morningglory plant response rating: 98
[7]; [14]
  Plant response rating, Nutsedge, Yellow: 35
[7]; [15]
  Plant response rating, Nutsedge, Yellow: 85
[7]; [16]
  Plant response rating, Nutsedge, Yellow: 90
[7]; [17]
  Plant response rating, Nutsedge, Yellow: 65
[7]; [18]
  Plant response rating, Nutsedge, Yellow: 95
[7]; [19]
  Plant response rating, Nutsedge, Yellow: 95
[7]; [20]
  Nutsedge, Yellow plant response rating: 90
[8]; [14]
  Plant response rating, Oilseed Rape: 0
[8]; [15]
  Plant response rating, Oilseed Rape: 5
[8]; [16]
  Plant response rating, Oilseed Rape: 10
[8]; [17]
  Plant response rating, Oilseed Rape: 85
[8]; [18]
  Plant response rating, Oilseed Rape: 0
[8]; [19]
  Plant response rating, Oilseed Rape: 85
[8]; [20]
  Oilseed Rape plant response rating: 100
[9]; [14]
  Plant response rating, Pigweed: 95
[9]; [15]
  Plant response rating, Pigweed: 98
[9]; [16]
  Plant response rating, Pigweed: 98
[9]; [17]
  Plant response rating, Pigweed: 100
[9]; [18]
  Plant response rating, Pigweed: 100
[9]; [19]
  Plant response rating, Pigweed: 100
[9]; [20]
  Pigweed plant response rating: 100
[10]; [14]
  Plant response rating, Ragweed: 95
[10]; [15]
  Plant response rating, Ragweed: 98
[10]; [16]
  Plant response rating, Ragweed: 98
[10]; [17]
  Plant response rating, Ragweed: 95
[10]; [18]
  Plant response rating, Ragweed: 100
[10]; [19]
  Plant response rating, Ragweed: 98
[10]; [20]
  Ragweed plant response rating: 100
[11]; [14]
  Plant response rating, Ryegrass, Italian: 85
[11]; [15]
  Plant response rating, Ryegrass, Italian: 95
[11]; [16]
  Plant response rating, Ryegrass, Italian: 95
[11]; [17]
  Plant response rating, Ryegrass, Italian: 85
[11]; [18]
  Plant response rating, Ryegrass, Italian: 95
[11]; [19]
  Plant response rating, Ryegrass, Italian: 95
[11]; [20]
  Ryegrass, Italian plant response rating: 95
Soybean (Glycine max); [14]
  Plant response rating, Soybean: 0
Soybean (Glycine max); [15]
  Plant response rating, Soybean: 10
Soybean (Glycine max); [16]
  Plant response rating, Soybean: 10
Soybean (Glycine max); [17]
  Plant response rating, Soybean: 0
Soybean (Glycine max); [18]
  Plant response rating, Soybean: 5
Soybean (Glycine max); [19]
  Plant response rating, Soybean: 30
Soybean (Glycine max); [20]
  Soybean plant response rating: 35
[12]; [14]
  Plant response rating, Waterhemp: 85
[12]; [15]
  Plant response rating, Waterhemp: 98
[12]; [16]
  Plant response rating, Waterhemp: 100
[12]; [17]
  Plant response rating, Waterhemp: 98
[12]; [18]
  Plant response rating, Waterhemp: 100
[12]; [19]
  Plant response rating, Waterhemp: 100
[12]; [20]
  Waterhemp plant response rating: 100
[13]; [14]
  Plant response rating, Wheat: 0
[13]; [15]
  Plant response rating, Wheat: 30
[13]; [16]
  Plant response rating, Wheat: 35
[13]; [17]
  Plant response rating, Wheat: 40
[13]; [18]
  Plant response rating, Wheat: 45
[13]; [19]
  Plant response rating, Wheat: 90
[13]; [20]
  Wheat plant response rating: 90
Kochia (Kochia scoparia); 31 g ai/ha, scale 0 to 100 (0 no effect, 100 complete control)
  Plant response rating, Kochia: 85
Kochia (Kochia scoparia); 125 g ai/ha, scale 0 to 100, 0 is no effect, 100 is complete control
  Plant response rating, Kochia: 90
Kochia (Kochia scoparia); 250 g ai/ha, scale 0 to 100, 0 no effect, 100 complete control, 13 to 15 d
  Plant response rating, Kochia: 90
